Assays:
influenza virus = type: cell-based
A/WSN/33 [1] = assay: microbe, parasite or virus in culture; type: cell-based, influenza A virus
[2] = system: HA-mediated membrane fusion; type: cell-based, influenza A virus; details: pH 5
H1N1 A/WSN/1933 virus = type: cell-based, influenza A virus
H3N2 A/Panama/1999 = type: cell-based, influenza A virus
A/WSN/33 [3] = type: cell-based, influenza A virus
WSN-PB2-Nanoluc virus [4] = assay: microbe, parasite or virus in culture; type: cell-based; details: Influenza A virus, HCT-116, read-out: IC50, Nanoluc levels
A/WSN/33 [5] = type: cell-based, influenza A virus; remark: listed apart in the source
H3N2 (A/Wyoming/03/2003) = type: cell-based, influenza A virus
[6] = system: poly(A) RNA and GAPDH mRNA; assay: RNA-FISH and smRNA-FISH of cellular RNA in uninfected cells; type: cell-based, human; details: 1 μM
[7] = system: H1N1 (A/California/07/2009); type: cell-based, influenza A virus
[8] = system: H5N1 A/Vietnam/1203/2004 HaLo virus; type: cell-based, influenza A virus; details: 25 μM, MOI = 0.01, 24 h, A549 cells
A549 cells = details: human
WSN-PB2-Nanoluc virus [9] = type: cell-based, influenza A virus

| SMILES | viral mRNA levels in primary cells (influenza virus) | selectivity index (A/WSN/33 [1]) | inhibition of fusion (hemolysis) [2] | reduction of viral titers (H1N1 A/WSN/1933 virus) | reduction of viral titers (H3N2 A/Panama/1999) | viral M mRNA expression, compound added after infection (A/WSN/33 [3]) | viral M mRNA expression, compound added prior to infection (A/WSN/33 [3]) | viral mRNA levels (HA, NS1, M1, M2) by qPCR (A/WSN/33 [3]) | viral mRNA levels (M, HA, NS) by smRNA-FISH (A/WSN/33 [3]) | IC50 (WSN-PB2-Nanoluc virus [4]) [µM] | antiviral activity when used shortly post-infection (western blot NP, M1) (A/WSN/33 [5]) | viral protein levels (western blot) (A/WSN/33 [5]) | number of infected cells (H3N2 (A/Wyoming/03/2003)) | effect on cellular bulk poly(A) RNA or GAPDH [6] | number of infected cells [7] | reduction of viral titers [8] | Cytotoxicity (MTT) CC10 (A549 cells) [µM] | antiviral activity as described in SAR text (A/WSN/33 [1]) | activity under the assay conditions (WSN-PB2-Nanoluc virus [9]) |
| --- | --- | --- | --- | --- | --- | --- | --- | --- | --- | --- | --- | --- | --- | --- | --- | --- | --- | --- | --- |
| CCN(c1ccccc1C)S(=O)(=O)c1cc(Cl)ccc1Cl [compound 1, 2,5-dichloro-N-ethyl-N-(o-tolyl)-benzenesulfonamide] | robustly decreased viral mRNA levels | >625 | robust inhibition of fusion | four | four | robustly expressed | expressed at very low levels | reduced levels of viral mRNAs | reduced influenza virus (A/WSN/33) mRNA levels | 0.0168 | lack of antiviral activity | reduced levels of influenza virus proteins | slightly inhibited the number of infected cells | did not have a significant effect | robustly reduced the number of cells infected | four | >25 |  |  |
| CCN(c1ccc(Cl)cc1C)S(=O)(=O)c1cc(Cl)ccc1Cl [compound 12, 2,5-Dichloro-N-(4-chloro-2-methylphenyl)-N-ethylbenzenesulfonamide] |  | >147 |  |  |  |  |  |  |  |  |  |  | more effectively decreased infection |  | robustly reduced the number of cells infected |  | >5 | generally more potent |  |
| CCN(c1ccc(F)cc1F)S(=O)(=O)c1cc(Cl)ccc1Cl [compound 21, 2,5-Dichloro-N-(2,4-difluorophenyl)-N-ethylbenzenesulfonamide] |  | >96 |  |  |  |  |  |  |  |  |  |  | slightly inhibited the number of infected cells |  | robustly reduced the number of cells infected |  | >5 | equipotent to compound 1 |  |
| C#CCN(c1cccc(N=[N+]=[N-])c1)S(=O)(=O)c1cc(Cl)ccc1Cl [compound 54, N-(3-Azidophenyl)-2,5-dichloro-N-(prop-2-yn-1-yl)benzenesulfonamide] |  |  |  |  |  |  |  |  |  |  |  |  |  |  |  |  |  |  | retained robust activity |

From paper PMC8900595 (Journal of medicinal chemistry, 2021)
